Values quoted from earlier work as cited in patent US7479481B2, “Treatment of ocular diseases and disorders using lantibiotic compositions” (Molichem Medicines, Inc., priority 2004, dated 2009).

System: clatharin-coated vesicle acidification
Conditions: clatharin-coated vesicles; Stone et al., J. Biol. Chem. 259: 2701-2703 (1984)

duramycin
inhibition of the proton translocation facilitated by chloride translocation: up to 50%
